Reference: patent US6080772A, “Thiazole compounds and methods of modulating signal transduction” (Sugen, Inc., priority 1997, dated 2000)

System: insulin receptor (IR)
Assay: Phosphotyrosine enzyme linked immunosorbent assay: pTyr on insulin receptor in NIH3T3 cells over-expressing human IR (H25 cells)
Conditions: Table III; at 50 μM

Row | Structure (SMILES) | increase (PTYR)
1 | CC(=O)Nc1ccc(-n2nnnc2Sc2ncc([N+](=O)[O-])s2)cc1 [Compound 31, 1-(4-Acetamidophenyl)-5-[(5-nitrothiazol-2-yl)mercapto]tetrazole] | 49%

Same assay, conditions: Table III; at 100 μM

Row | Structure (SMILES) | increase in PTYR
2 | Nc1ccc(-n2nnnc2Sc2ncc([N+](=O)[O-])s2)cc1 [Compound 32, 1-(4-Aminophenyl)-5-[(5-nitrothiazol-2-yl)mercapto]tetrazole] | 40%
3 | COc1ccc2nc(Sc3ncc([N+](=O)[O-])s3)[nH]c2c1 [Compound 45, 5-Methoxy-2-[(5-nitrothiazol-2-yl)mercapto]benzimidazole] | 46%

Same assay, conditions: from 15.6 μM to 250 μM

Row | Structure (SMILES) | dose dependence of the increase in the pTyr level
4 | O=[N+]([O-])c1cnc(Nc2nc(-c3ccc(Cl)cc3)n[nH]2)s1 [Compound 10, 3-(4-chlorophenyl)-5-[(5-nitrothiazol-2-yl)amino]-1,2,4-triazole] | dependent on the dose

Same assay, conditions: read-out: ACTIVITY EC50

Row | Structure (SMILES) | EC50
5 | CCNC(=O)n1c(Sc2ncc([N+](=O)[O-])s2)nc2cc([N+](=O)[O-])ccc21 [Compound 18, 1-Ethylaminocarbonyl-5-nitro-2-[(5-nitrothiazol-2-yl)mercapto]benzimidazole] | 16 µM
6 | O=[N+]([O-])c1cnc(Sc2nnc(Sc3nnc(SCCCl)s3)s2)s1 [Compound 26, 2-(2-Chloroethylmercapto)-5-[[2-[(5-nitrothiazol-2-yl)mercapto]-1,3,4-thiadiazol-5-yl]mercapto]-1,3,4-thiadiazole] | 46 µM

Same assay, conditions: read-out: ACTIVITY EC50; Table III; […]

Row | Structure (SMILES) | EC50
7 | Cc1ccc(S(=O)(=O)n2c(Sc3ncc([N+](=O)[O-])s3)nc3ccccc32)cc1 [Compound 17, 1-Tosyl-2-[(5-nitrothiazol-2-yl)mercapto]benzimidazole] | > 25 µM
8 | Cc1nc2nc(Sc3ncc([N+](=O)[O-])s3)[nH]c2cc1Br [Compound 19] | > 100 µM
9 | O=CNc1nnc(Sc2ncc([N+](=O)[O-])s2)s1 [Compound 22, 2-Formamido-5-[(5-nitrothiazol-2-yl)mercapto]-1,3,4-thiadiazole] | 29 µM
10 | O=C(CSc1nnc(Sc2ncc([N+](=O)[O-])s2)s1)Oc1ccccc1 [Compound 24, 2-[(5-Nitrothiazol-2-yl)mercapto]-5-[(phenoxycarbonyl)methylmercapto]-1,3,4-thiadiazole] | > 100 µM
11 | CCOC(=O)CSc1nnc(Sc2nnc(Sc3ncc([N+](=O)[O-])s3)s2)s1 [Compound 25, 2-[(Ethoxycarbonyl)methylmercapto]-5-[[2-[(5-nitrothiazol-2-yl)mercapto]-1,3,4-thiadiazol-5-yl]mercapto]-1,3,4-thiadiazole] | 48 µM
12 | O=[N+]([O-])c1cnc(Sc2nnc(Sc3nnc(Sc4cc(O)ccc4O)s3)s2)s1 [Compound 27, 2-(2,5-Dihydroxyphenylmercapto)-5-[[2-[(5-nitrothiazol-2-yl)mercapto]-1,3,4-thiadiazol-5-yl]mercapto]-1,3,4-thiadiazole] | 96 µM
13 | CCSc1nnc(Sc2ncc([N+](=O)[O-])s2)s1 [Compound 28, 2-Ethylmercapto-5-[(5-nitrothiazol-2-yl)mercapto]-1,3,4-thiadiazole] | 35 µM
14 | Nc1ccc(-n2nnnc2Sc2ncc([N+](=O)[O-])s2)cc1 [Compound 29, 1-(4-Aminophenyl)-5-[(5-nitrothiazol-2-yl)mercapto]tetrazole] | > 100 µM
15 | C=CCn1nnnc1Sc1ncc([N+](=O)[O-])s1 [Compound 30, 1-Allyl-5-[(5-nitrothiazol-2-yl)mercapto]tetrazole] | 32 µM
16 | CC(=O)Nc1ccc(-n2nnnc2Sc2ncc([N+](=O)[O-])s2)cc1 [Compound 31, 1-(4-Acetamidophenyl)-5-[(5-nitrothiazol-2-yl)mercapto]tetrazole] | > 100 µM
17 | Cn1c(=O)n(C)c2nc(Sc3ncc([N+](=O)[O-])s3)ncc21 [Compound 36, 1,3-Dimethyl-5-[(5-nitrothiazol-2-yl)mercapto]imidazo[4,5-d]pyrimid-2-one] | > 100 µM
18 | O=[N+]([O-])c1cnc(Sc2nc3cc(C(F)(F)F)cc(Cl)c3[nH]2)s1 [Compound 41, 4-Chloro-2-[(5-nitrothiazol-2-yl)mercapto]-6-(trifluoromethyl)benzimidazole] | 10 µM
19 | CCOC(=O)c1cnc(Sc2ncc([N+](=O)[O-])s2)n1C [Compound 44, 4-Ethoxycarbonyl-3-methyl-2-[(5-nitrothiazol-2-yl)mercapto]imidazole] | 7.6 µM
20 | CCOc1ccc(OCC)c2[nH]c(Sc3ncc([N+](=O)[O-])s3)nc12 [Compound 46, 4,7-Diethoxy-2-[(5-nitrothiazol-2-yl)mercapto]benzimidazole] | 9.7 µM
21 | CCOC(=O)c1nc(Sc2ncc([N+](=O)[O-])s2)n(C2CCCCC2)c1C(=O)OCC [Compound 47, 1-Cyclohexyl-4,5-di(ethoxycarbonyl)-2-[(5-nitrothiazol-2-yl)mercapto]imidazole] | 15.7 µM
22 | Cc1ccc2nc(Sc3ncc([N+](=O)[O-])s3)[nH]c2c1 [Compound 50, 5-Methyl-2-[(5-nitrothiazol-2-yl)mercapto]benzimidazole] | > 100 µM
23 | O=[N+]([O-])c1cnc(Sc2nc3ccc(S(=O)(=O)O)cc3[nH]2)s1 [Compound 51, 2-[(5-nitrothiazol-2-yl)mercapto]-5-sulfobenzimidazole] | 10.3 µM
24 | O=[N+]([O-])c1cnc(Sc2nnnn2-c2ccc(O)cc2)s1 [Compound 55, 1-(4-Hydroxyphenyl)-5-[(5-nitrothiazol-2-yl)mercapto]tetrazole] | 41 µM
25 | Cn1nnnc1Sc1ncc([N+](=O)[O-])s1 [Compound 56, 1-Methyl-5-[(5-nitrothiazol-2-yl)mercapto]tetrazole] | 27 µM
26 | CCn1nnnc1Sc1ncc([N+](=O)[O-])s1 [Compound 57, 1-Ethyl-5-[(5-nitrothiazol-2-yl)mercapto]tetrazole] | 81 µM
27 | O=C(O)Cn1nnnc1Sc1ncc([N+](=O)[O-])s1 [Compound 58, 1-Carboxymethyl-5-[(5-nitrothiazol-2-yl)mercapto]tetrazole] | 40 µM
28 | Cc1nnc(Sc2ncc([N+](=O)[O-])s2)s1 [Compound 60, 2-Methyl-5-[(5-nitrothiazol-2-yl)mercapto]-1,3,4-thiadiazole] | > 100 µM
29 | O=[N+]([O-])c1cnc(Sc2nnc(SCC3CC3)s2)s1 [Compound 62, 2-Cyclopropylmethylmercapto-5-[(5-nitrothiazol-2-yl)mercapto]-1,3,4-thiadiazole] | > 100 µM

Now from value to compound:

Row | EC50 | Structure (SMILES)
30 | 27 µM | O=[N+]([O-])c1cnc(Sc2nccn2Cc2ccccc2)s1 [Compound 16, 1-Benzyl-2-[(5-nitrothiazol-2-yl)mercapto]imidazole]
31 | 15 µM | O=[N+]([O-])c1cnc(Sc2nc3ncccc3[nH]2)s1 [Compound 20]
32 | > 50 µM | O=C(CN(c1ccccc1)c1nnc(Sc2ncc([N+](=O)[O-])s2)s1)Nc1cccc(C(F)(F)F)c1 [Compound 21, 2-[N-Phenyl-N-[3-(trifluoromethyl)phenylaminocarbonylmethyl]amino]-5-[(5-nitrothiazol-2-yl)mercapto]-1,3,4-thiadiazole]
33 | > 100 µM | CCCCSc1nnc(Sc2ncc([N+](=O)[O-])s2)s1 [Compound 23, 2-n-Butylmercapto-5-[(5-nitrothiazol-2-yl)mercapto]-1,3,4-thiadiazole]
34 | > 100 µM | NS(=O)(=O)c1ccc(-n2nnnc2Sc2ncc([N+](=O)[O-])s2)cc1 [Compound 33, 1-(4-Aminosulfonylphenyl)-5-[(5-nitrothiazol-2-yl)mercapto]tetrazole]
35 | 33 µM | CCn1nnnc1Sc1ncc([N+](=O)[O-])s1 [Compound 34, 1-Ethyl-5-[(5-nitrothiazol-2-yl)mercapto]tetrazole]
36 | > 25 µM | O=c1[nH]c(Sc2ncc([N+](=O)[O-])s2)nc2ccccc12 [Compound 35, 2-[(5-Nitrothiazol-2-yl)mercapto]-4-quinazolone]
37 | > 100 µM | O=[N+]([O-])c1cnc(Sc2nc(O)c3nc(O)[nH]c3n2)s1 [Compound 37]
38 | 15.6 µM | Nc1nnc(Sc2ncc([N+](=O)[O-])s2)s1 [Compound 38, 2-Amino-5-[(5-nitrothiazol-2-yl)mercapto]-1,3,4-thiadiazole]
39 | 17.5 µM | O=[N+]([O-])c1cnc(Sc2nc3c([nH]2)CC(Cl)C(Cl)C3)s1 (stereo not shown) [Compound 39, 5,6-Dichloro-2-[(5-nitrothiazol-2-yl)mercapto]cyclohexoimidazole]
40 | 8.6 µM | O=[N+]([O-])c1cnc(Sc2nc3cc(C(F)(F)F)cc(Br)c3[nH]2)s1 [Compound 40, 4-Bromo-2-[(5-nitrothiazol-2-yl)mercapto]-6-(trifluoromethyl)benzimidazole]
41 | 14 µM | COC(=O)c1cnc(Sc2ncc([N+](=O)[O-])s2)n1C [Compound 42, 4-Methoxycarbonyl-3-methyl-2-[(5-nitrothiazol-2-yl)mercapto]imidazole]
42 | 8.5 µM | CCOC(=O)c1c[nH]c(Sc2ncc([N+](=O)[O-])s2)n1 [Compound 43, 4-Ethoxycarbonyl-2-[(5-nitrothiazol-2-yl)mercapto]imidazole]
43 | > 100 µM | CCOC(=O)c1nc(Sc2ncc([N+](=O)[O-])s2)[nH]c1C(=O)OCC [Compound 48, 4,5-Di(ethoxycarbonyl)-2-[(5-nitrothiazol-2-yl)mercapto]imidazole]
44 | 4 µM | CCCn1c(Sc2ncc([N+](=O)[O-])s2)nc2c(O)nnc(O)c21 [Compound 49]
45 | > 50 µM | CC(C)n1c(Sc2ncc([N+](=O)[O-])s2)nc2cc(Cl)ccc21 [Compound 52, 5-Chloro-1-isopropyl-2-[(5-nitrothiazol-2-yl)mercapto]benzimidazole]
46 | > 25 µM | Cn1c(Sc2ncc([N+](=O)[O-])s2)nc2cc(C(F)(F)F)cnc21 [Compound 53]
47 | 42 µM | O=[N+]([O-])c1cnc(Sc2nnnn2-c2ccc(F)cc2)s1 [Compound 54, 1-(4-Fuorophenyl)-5-[(5-nitrothiazol-2-yl)mercapto]tetrazole]
48 | > 100 µM | Nc1nnc(Sc2ncc([N+](=O)[O-])s2)s1 [Compound 59, 2-Amino-5-[(5-nitrothiazol-2-yl)mercapto]-1,3,4-thiadiazole]
49 | 32 µM | CSc1nnc(Sc2ncc([N+](=O)[O-])s2)s1 [Compound 61, 2-Methylmercapto-5-[(5-nitrothiazol-2-yl)mercapto]-1,3,4-thiadiazole]
